Assay [1] relates to adhesion between vascular endothelial cells and HL-60 cells. The assay is described as follows: Adhesion of HL-60 cells to TNF-α-stimulated vascular endothelial cells. In kind it is cell-based, Human. Particulars: for Adhesion rate: TNF-α-stimulated endothelial cells; for Suppression of TNF-α-induced increase in adhesion rate (statement): 10^−7 to 10^−4 M, dose-dependent. As for the experimental part: Human vascular endothelial cells (sold by Sanko Junyaku) suspended in RPMI-1640 medium (Gibco) containing 10% FCS (HyClone) at a concentration of 1×10^5 cells/ml. 100 μl/well of the suspension was seeded into a 96-well microtiter plate.
100 U/ml of human recombinant TNF-α (Promega) was added to monolayer of vascular endothelial cells after incubation at 37° C. for 2 days in a 5% CO2 incubator. The plate was incubated 37° C. for 6 hours in a 5% CO2 incubator to prepare vascular endothelial cells stimulated with TNF-α.
On the other hand, cyclopentenone, GM or dipropionylcyclopentenone at a varying concentration was added to HL-60 cells suspended in RPMI-1640 medium containing 10% FCS at a concentration of 1×10^6 cells/ml. The cells were cultured at 37° C. for 3 hours in a 5% CO2 incubator. After cultivation, 5 μM of 5(-and-6)-carboxyfluorescein diacetate, succinimide ester (Molecular Probe) as a fluorescent agent was added thereto and reacted at 37° C. for 10 minutes. The cells were washed twice with RPMI-1640 medium and suspended in RPMI-1640 medium containing 10% FCS to prepare a suspension of fluorescence-labeled HL-60 cells at a concentration of 1×10^6 cells/ml.
100 μl/well of the fluorescence-labeled HL-60 cells were overlaid onto the vascular endothelial cells stimulated with TNF-α. Cyclopentenone, GM or dipropionylcyclopentenone at a varying concentration was added thereto. The plate was incubated at 37° C. for 20 minutes in a 5% CO2 incubator for adhesion reaction between vascular endothelial cells and HL-60 cells.
After the adhesion reaction, the plate was washed to remove non-adhesive cells. 1% Triton X (Nacalai Tesque) was added thereto to destroy adhesive cells. The fluorescence intensity was measured using filters for 485/22 nm (excitation) and 530/25 nm (emission).
The adhesion rate which represents the ratio of cells adhered to vascular endothelial cells was determined defining the fluorescence intensity for 1×10^5 fluorescence-labeled cells as 100%.

Assay [2] concerns spleen lymphocytes stimulated with Ehrlich ascites carcinoma cells. Nature of the assay: Cancer cell-specific proliferation of spleen lymphocytes from treated tumor-bearing mice. In kind it is in vivo, ddY mice. Particulars: for Growth of spleen lymphocytes on stimulation with cancer cells (statement): mice administered intraperitoneally. As for the experimental part: ddY mice (female, 7 weeks old) were purchased from Japan SLC and pre-bred 1 week before using in experiments.
1×10^6 Ehrlich ascites carcinoma cells were intraperitoneally inoculated to each mouse. 10 mg/kg of cyclopentene, 30 mg/kg of GM or 10 mg/kg of dipropionylcyclopentene was intraperitoneally administered to the mouse on the day after the inoculation. Saline was administered to a control mouse.
A spleen was taken out from the mouse 10 days after the inoculation with cancer cells, finely minced and suspended in RPMI-1640 medium (Gibco) containing 10% FCS (HyClone) to obtain a single cell suspension. Adhesive cells in the cell suspension adhered to a plastic Petri dish were removed and non-adhesive cells were used as spleen lymphocytes.
The spleen lymphocytes were suspended in RPMI-1640 medium containing 10% FCS at a concentration of 2×10^6/ml. 100 μl/well of the suspension was seeded into a microtiter plate.
Stimulated cells were prepared as follows. Mitomycin C (Kyowa Hakko Kogyo) was added to a concentration of 50 μg/ml to Ehrlich ascites carcinoma cells suspended in RPMI-1640 medium at a concentration of 2×10^6 cells/ml. The cells were treated at 37° C. for 30 minutes, washed twice and then suspended in RPMI-1640 medium containing 10% FCS to prepare stimulated cells at a concentration of 2×10^6 cells/ml. 100 μl of the thus prepared stimulated cells was overlaid onto each well of the plate into which 100 μl/well of the spleen lymphocytes had been added. The plate was incubated at 37° C. for 5 days in a 5% CO2 incubator. 37 kBq of ^3H-thymidine (Daiichi Pure Chemicals) was added to the well to pulse-label the cells on the day before the completion of the cultivation. After cultivation, the cells were harvested on a glass filter to measure the radioactivity.

The subject of assay [3] is NK cells. In kind it is in vivo, ddY mice. The conditions noted are these: mice administered intraperitoneally. The procedure: ddY mice (female, 7 weeks old) were purchased from Japan SLC and pre-bred for 1 week before using in experiments.
1×10^6 Ehrlich ascites carcinoma cells were intraperitoneally inoculated to each mouse. 10 mg/kg of cyclopentenone, 30 mg/kg of GM or 10 mg/kg of dipropionylcyclopentenone was intraperitoneally administered to the mouse on the day after the inoculation. Saline was administered to a control mouse.
A spleen was taken out from the mouse 10 days after the inoculation with cancer cells, finely minced and suspended in RPMI-1640 medium containing 10% FCS (HyClone) to obtain a single cell suspension. Adhesive cells adhered to a plastic Petri dish were removed from the cell suspension and non-adhesive cells were used as NK cells.
The NK cells were suspended in RPMI-1640 medium containing 10% FCS at a concentration of 6×10^6/ml. 100 μl/well of the suspension was seeded into a microtiter plate.
Target cells were prepared as follows. 3700 kBq of ^51Cr (Amersham) was added to 1×10^6 YAC-1 cells (Dainippon Pharmaceutical). The cells were cultured at 37° C. for 1 hour for labeling. The labeled cells were washed twice and then suspended in RPMI-1640 medium containing 10% FCS at a concentration of 2×10^5 cells/ml. […] The radioactivity (experimental value) was measured using an auto gamma counter.
100 μl of the culture medium was added to the reaction system in place of the NK cells and the radioactivity was measured in order to measure the radioactivity spontaneously released from the target cells (control value).
Furthermore, the radioactivity released into the supernatant when 1% Triton (Nacalai Tesque) was added to the reaction system to lyse the 51Cr-labeled YAC-1 cells was measured in order to measure the total radioactivity contained in the reaction system (total radioactivity value).
The cytotoxicity (%) specifically mediated by the NK cells can be determined according to the following equation.
Cytotoxicity (%)=[(experimental value−control value)/(total radioactivity value−control value)]×100

Assay [4] addresses T1, topoisomerase II (Homo sapiens, UniProt P11388).
T1 construct: purchased TopoGEN
The assay is described as follows: Topoisomerase II inhibition, pBR322 DNA relaxation. The conditions noted are these: 37° C., 30 minutes. The format is biochemical. As for the experimental part:
(1) 2 μl of topoisomerase II (TopoGEN; 2 units/μl), 2 μl of 10-fold concentrated buffer [0.5 M Tris-HCl (pH 8.0), 1.2 M KCl, 0.1 M MgCl2, 2.5 mM adenosine triphosphate, 5 mM dithiothreitol], 2 μl of 0.1% bovine serum albumin (Takara Shuzo), 11 μl of distilled water and 2 μl of distilled water (control) or 2 μl of one of aqueous solutions of dipropionylcyclopentenone, diisobutyrylcyclopentenone, dibenzoylcyclopentenone, dihexanoylcyclopentenone, di-2-hexenoylcyclopentenone, dimethoxyacetylcyclopentenone, dimethylfumarylcyclopentenone or dimethylmaleylcyclopentenone at varying concentrations were mixed together. 1 μl of 0.25 μg/μl pBR322 DNA (Takara Shuzo) was added thereto. The resulting mixture was reacted at 37° C. After reacting for 30 minutes, 2 μl of an aqueous solution containing 1% sodium dodecyl sulfate, 50% glycerol and 0.02% Bromophenol Blue was added thereto to stop the reaction.
20 μl of the reaction mixture was applied to 1% agarose gel prepared using agarose L03 (Takara Shuzo) and TAE buffer [40 mM Tris, 5 mM sodium acetate, 1 mm ethylenediaminetetraacetic acid disodium salt (EDTA); adjusted to pH 7.8 using acetic acid] and electrophoresed in TAE buffer. After electrophoresis, the gel was soaked in a 1 μg/ml aqueous ethidium bromide solution. The gel was exposed to ultraviolet rays to visualize the electophoretic pattern of DNA.

The test system of assay [5] is HL-60 (ATCC CCL-240) cells. Nature of the assay: Viability and apoptosis of HL-60 cells (Trypan Blue, optical microscope). The format is cell-based. Particulars: Homo sapiens, 24 hours, Trypan Blue, read-out: Viability50 (concentration that results in a viability of 50%). The procedure: HL-60 (ATCC CCL-240) cells were cultured at 37° C. in RPMI 1640 medium (Bio Whittaker) containing 10% fetal calf serum (FCS; JRH) which had been treated at 56° C. for 30 minutes and suspended in RPMI 1640 medium at a concentration of 2.5×10^5 cells/5 ml.
10 μl each of solutions of diisobutyrylcyclopentenone, dimethoxyacetylcyclopentenone, dimethylfumarylcyclopentenone or dimethylmaleylcyclopentenone in 70% ethanol in water diluted to varying concentrations was added to 5 ml of the suspension. The mixtures were incubated at 37° C. for 24 hours in the presence of 5% Co2. 10 μl of aqueous actinomycin D (Sigma) solution (0.5 mg/ml), which is known as a reagent that induces apoptosis, was used in place of the sample and the mixture was incubated under the same conditions for confirmation.
The cultured cells were examined under an optical microscope.
Furthermore, a portion of the cells cultured as described above was stained with 0.4% Trypan Blue and examined under an optical microscope. The number of viable cells which were not stained and the number of dead cells which were stained blue were counted. The concentration of each of the samples that results in a viability of 50% (Viability50 μM) was determined.

The structures appear in SMILES notation. A value given as a limit tells only on which side of the number the result lay.

T1 sequence (P11388 whole entry): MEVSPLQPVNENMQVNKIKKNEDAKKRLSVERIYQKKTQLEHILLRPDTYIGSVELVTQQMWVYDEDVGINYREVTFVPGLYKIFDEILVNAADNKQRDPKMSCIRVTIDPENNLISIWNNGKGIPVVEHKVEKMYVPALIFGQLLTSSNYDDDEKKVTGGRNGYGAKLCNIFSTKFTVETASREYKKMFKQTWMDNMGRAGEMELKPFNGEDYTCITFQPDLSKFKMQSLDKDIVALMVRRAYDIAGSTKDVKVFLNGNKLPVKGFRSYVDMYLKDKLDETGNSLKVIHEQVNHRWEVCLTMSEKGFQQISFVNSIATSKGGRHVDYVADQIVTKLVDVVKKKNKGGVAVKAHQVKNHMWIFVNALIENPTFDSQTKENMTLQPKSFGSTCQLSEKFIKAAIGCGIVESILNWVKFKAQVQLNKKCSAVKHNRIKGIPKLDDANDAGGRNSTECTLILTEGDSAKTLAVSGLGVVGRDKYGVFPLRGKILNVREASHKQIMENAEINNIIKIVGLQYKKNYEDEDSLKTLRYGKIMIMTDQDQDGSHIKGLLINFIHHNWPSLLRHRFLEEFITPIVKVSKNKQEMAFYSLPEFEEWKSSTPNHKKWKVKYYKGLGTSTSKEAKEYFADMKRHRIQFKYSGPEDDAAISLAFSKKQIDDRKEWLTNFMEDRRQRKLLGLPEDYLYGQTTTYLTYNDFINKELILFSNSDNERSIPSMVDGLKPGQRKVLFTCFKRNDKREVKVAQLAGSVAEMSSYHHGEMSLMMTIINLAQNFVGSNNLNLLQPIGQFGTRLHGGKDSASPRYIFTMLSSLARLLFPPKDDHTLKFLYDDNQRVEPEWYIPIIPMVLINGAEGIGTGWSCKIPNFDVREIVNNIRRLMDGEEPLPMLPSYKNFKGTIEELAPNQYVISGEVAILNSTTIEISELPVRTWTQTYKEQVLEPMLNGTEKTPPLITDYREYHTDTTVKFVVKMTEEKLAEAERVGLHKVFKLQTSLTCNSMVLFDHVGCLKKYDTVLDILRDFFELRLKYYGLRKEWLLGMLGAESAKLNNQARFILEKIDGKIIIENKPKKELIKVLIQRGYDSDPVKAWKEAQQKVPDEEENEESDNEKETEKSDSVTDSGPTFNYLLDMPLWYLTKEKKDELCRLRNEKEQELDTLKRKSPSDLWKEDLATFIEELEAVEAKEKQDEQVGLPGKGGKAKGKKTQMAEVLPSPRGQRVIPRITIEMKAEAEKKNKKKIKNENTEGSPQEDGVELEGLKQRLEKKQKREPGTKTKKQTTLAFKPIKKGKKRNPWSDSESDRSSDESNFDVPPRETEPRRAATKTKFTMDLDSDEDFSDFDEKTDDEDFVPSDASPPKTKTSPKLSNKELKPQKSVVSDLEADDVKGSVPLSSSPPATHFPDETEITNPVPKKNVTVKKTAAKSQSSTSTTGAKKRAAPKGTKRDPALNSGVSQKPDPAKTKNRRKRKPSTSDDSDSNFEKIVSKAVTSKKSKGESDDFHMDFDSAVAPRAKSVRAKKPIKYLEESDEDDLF

For `O=C1C=CC(O)C1O` (centres unmarked) [Cyclopentenone, 4,5-dihydroxy-2-cyclopenten-1-one], the Adhesion rate came out at 51.7% in assay [1] (0.1 μM), 46.0% in assay [1] (1 μM), 22.2% in assay [1] (10 μM) and 17.9% in assay [1] (100 μM). For the same molecule, the “Suppression of TNF-α-induced increase in adhesion rate (statement)” value in assay [1] is given as “suppressed”. In addition, the 3H-thymidine uptake came out at 9680 CPM in assay [2] (10 mg/kg intraperitoneal, no stimulation with cancer cell) and 25756 CPM in assay [2] (10 mg/kg intraperitoneal, stimulation with cancer cell). Besides, the “Growth of spleen lymphocytes on stimulation with cancer cells (statement)” value in assay [2] is on record as “significantly enhanced”. In addition, the “Activation of NK cells (statement)” value in assay [3] is reported as “Activation of NK cells was observed”.

With `COC(=O)/C=C\C(=O)OC1C=CC(=O)C1OC(=O)CCC(=O)OC` (centres unmarked) [Dimethylmaleylcyclopentenone, dimethylmaleylcyclopentenone], the “Concentration at which change of DNA from superhelical type to relaxed type was partially or completely inhibited” value in assay [4] was no less than 5 µM. Further, the IC50 in assay [5] amounted to 3.4 µM.

Turning to `N[C@@H](CCC(=O)N[C@@H](CSC1C=C(O)C(=O)C1)C(=O)NCC(=O)O)C(=O)O` (some centres unmarked) [GM, 2-hydroxy-4-glutathion-S-yl-2-cyclopenten-1-one], the Adhesion rate in assay [1] (0.1 μM) turned out to be 53.9%; in assay [1] (1 μM) it was 48.3%; in assay [1] (10 μM) it was 23.9%; in assay [1] (100 μM), 16.3%. For the same molecule, the “Suppression of TNF-α-induced increase in adhesion rate (statement)” value in assay [1] is reported as “suppressed”. The 3H-thymidine uptake in assay [2] (30 mg/kg intraperitoneal, no stimulation with cancer cell) is reported as 8700 CPM; in assay [2] (30 mg/kg intraperitoneal, stimulation with cancer cell), 36291 CPM. In assay [2], the “Growth of spleen lymphocytes on stimulation with cancer cells (statement)” value was “significantly enhanced”. Also, the “Activation of NK cells (statement)” value in assay [3] is recorded as “Activation of NK cells was observed”.

The values above are taken from patent US6548543B1, “Remedies or preventives containing cyclopentenone compounds as the active ingredient” (Takara Shuzo Co., Ltd., priority 1998, dated 2003).
